Measurements published in ChEMBL document CHEMBL3994598, “Silychristin: Skeletal Alterations and Biological Activities” (J Nat Prod, 2016).
pIC50: −log10 of the molar value.

Experiments:
[1] = Antiradical activity assessed as gallic acid equivalents of Foline-Ciocalteu reagent reducing capacity at 1 mM preincubated for 5 mins followed by Na2CO3 addition measured after 90 mins
[2] = Antioxidant activity assessed as DPPH radical scavenging activity after 30 mins; assay type: functional
[3] = Antioxidant activity assessed as trolox equivalent of ABTS radical scavenging activity at 100 uM incubated for >= 5 mins; assay type: functional
[4] = test system: MCF7; assay: Cytotoxicity against human MCF7 cells at 0.0003 to 100 uM after 48 hrs by ATPlite assay; assay type: cell-based; settings: mcf7, 48 h
[5] = test system: CAL-51; assay: Cytotoxicity against human CAL51 at 0.0003 to 100 uM after 48 hrs by ATPlite assay; assay type: cell-based; settings: cal-51, 48 h
[6] = Cytotoxicity against human primary prostate mesenchymal cells at 0.0003 to 100 uM after 48 hrs by ATPlite assay; assay type: cell-based; settings: primary prostate mesenchymal cell
[7] = test system: HepG2; assay: Cytotoxicity against human HepG2 cells at 0.0003 to 100 uM after 48 hrs by ATPlite assay; assay type: cell-based; settings: hepg2, 48 h
[8] = test system: K562; assay: Cytotoxicity against human K562 cells at 0.0003 to 100 uM after 48 hrs by ATPlite assay; assay type: cell-based; settings: k562, 48 h
[9] = test system: HL-60; assay: Cytotoxicity against human HL60 cells at 0.0003 to 100 uM after 48 hrs by ATPlite assay; assay type: cell-based; settings: hl-60, 48 h
[10] = test system: TERT-RPE1; assay: Cytotoxicity against human RPE1 cells at 0.0003 to 100 uM after 48 hrs by ATPlite assay; assay type: cell-based; settings: tert-rpe1, 48 h
[11] = test system: PC-3; assay: Cytotoxicity against human PC3 cells at 0.0003 to 100 uM after 48 hrs by ATPlite assay; assay type: cell-based; settings: pc-3, 48 h
[12] = Partition coefficient, logP of the compound in octan-1-ol and phosphate buffer at pH 7.4 at 25 degC after 2 hrs by UV-vis spectrometer; assay type: physicochemical; settings: octan-1-ol/phosphate buffer
[13] = test system: BJ; assay: Cytotoxicity against human BJ cells at 0.0003 to 100 uM after 48 hrs by ATPlite assay; assay type: cell-based
[14] = test system: MDA-MB-231; assay: Cytotoxicity against human MDA-MB-231 cells at 0.0003 to 100 uM after 48 hrs by ATPlite assay; assay type: cell-based; settings: mda-mb-231, 48 h
[15] = test system: Liver; assay: Antioxidant activity against tert-butyl hydroperoxide-induced lipoperoxidation in rat liver microsomal membranes incubated for 60 mins by TBARS assay; assay type: functional, cell membranes, Microsomal Membrane; settings: 1 h

SMILES	Activity [1] [equiv]	pIC50 [2]	Activity [3] [equiv]	Activity [4]	Activity [5]	Activity [6]	Activity [7]	Activity [8]	Activity [9]	Activity [10]	Activity [11]	logD at 2 h [12]	Activity [13]	Activity [14]	pIC50 [15]
COc1cc(-c2oc3c(O)cc(-c4oc5cc(O)cc(O)c5c(=O)c4O)cc3c2C)ccc1O	2.13	5.45	1.43	Toxic	Toxic	Toxic	Toxic	Toxic	Toxic	Toxic	Toxic	-0.24	Toxic	Toxic	5.19
COc1cc([C@@H]2Oc3c(O)cc([C@@H]4CC(=O)c5c(O)cc(O)cc5O4)cc3[C@H]2CO)ccc1O	1.24	4.37	0.77	Toxic	Toxic	Toxic	Toxic	Toxic	Toxic	Toxic	Toxic	-0.37	Toxic	Toxic	4.90
COc1cc([C@@H]2Oc3c(O)cc(-c4oc5cc(O)cc(O)c5c(=O)c4O)cc3[C@H]2CO)ccc1O	3.06	5.31	1.79	Toxic	Toxic	Toxic	Toxic	Toxic	Toxic	Toxic	Toxic	-1.01	Toxic	Toxic	5.26
COc1cc(-c2oc3c(O)cc([C@H]4Oc5cc(O)cc(O)c5C(=O)[C@@H]4O)cc3c2C)ccc1O	1.74	4.75	0.99	Toxic	Toxic	Toxic	Toxic	Toxic	Toxic	Toxic	Toxic	-0.74	Toxic	Toxic	5.39
COc1cc(C2Oc3cc([C@H]4Oc5cc(O)cc(O)c5C(=O)[C@@H]4O)ccc3OC2CO)ccc1O (mixture of isomers) [SILIBININ]	0.92	3.26	0.47	–	–	–	–	–	–	–	–	–	–	–	4.17
CC[C@@]1(O)C(=O)OCc2c1cc1n(c2=O)Cc2cc3ccccc3nc2-1 [CAMPTOTHECIN]	–	–	–	Toxic	Toxic	Toxic	Toxic	Toxic	Toxic	Toxic	Toxic	–	Toxic	Toxic	–
COc1cc(C2Oc3cc(-c4oc5cc(O)cc(O)c5c(=O)c4O)ccc3OC2CO)ccc1O (stereo not drawn) [DEHYDROSILYLBIN]	1.29	5.03	0.56	Toxic	Toxic	Toxic	Toxic	Toxic	Toxic	Toxic	Toxic	–	Toxic	Toxic	4.89
COc1cc([C@@H]2Oc3c(O)ccc([C@H]4Oc5cc(O)cc(O)c5C(=O)[C@@H]4O)c3[C@H]2CO)ccc1O [ISOSILYCHRISTIN]	1.74	4.27	0.65	Non-Toxic	Non-Toxic	Non-Toxic	Non-Toxic	Non-Toxic	Non-Toxic	Non-Toxic	Non-Toxic	-0.47	Non-Toxic	Non-Toxic	4.44
COc1cc(C2Oc3c(O)cc([C@H]4Oc5cc(O)cc(O)c5C(=O)[C@@H]4O)cc3C2CO)ccc1O (stereo partly drawn) [SILICRISTIN]	1.49	4.72	1.09	Non-Toxic	Non-Toxic	Non-Toxic	Non-Toxic	Non-Toxic	Non-Toxic	Non-Toxic	Non-Toxic	-0.39	Non-Toxic	Non-Toxic	4.99
COc1cc([C@H]2Oc3cc([C@H]4Oc5cc(O)cc(O)c5C(=O)[C@@H]4O)ccc3O[C@@H]2CO)ccc1O [SILYBIN A]	–	–	–	Toxic	Toxic	Toxic	Toxic	Toxic	Toxic	Toxic	Toxic	–	Toxic	Toxic	–
COc1cc([C@@H]2Oc3cc([C@H]4Oc5cc(O)cc(O)c5C(=O)[C@@H]4O)ccc3O[C@H]2CO)ccc1O [SILYBIN B]	–	–	–	Toxic	Toxic	Toxic	Toxic	Toxic	Toxic	Toxic	Toxic	–	Toxic	Toxic	–
